Legend:
[1] = test system: Sinapis alba, Stellaria media, Chrysanthemum segetum, and Lolium multiflorum; experiment: Pre-emergence effect on weeds (greenhouse pot test, visual scoring); assay type: in vivo; settings: applied pre-emergence at 0.3 kg to 0.005 kg of active ingredient per hectare; scored visually after 3 to 4 weeks vs untreated controls
Description: Seeds or rhizome pieces of monocotyledonous and dicotyledonous weed plants are placed in sandy loam soil in plastic pots and covered with soil. The compounds of the formula (I) or salts thereof according to the invention which have been formulated in the form of wettable powders or emulsion concentrates are then applied to the surface of the soil cover in the form of aqueous suspensions or emulsions at an application rate of […] of water/ha (converted), in various dosages.
After the treatment, the pots are placed in a greenhouse and kept under good growth conditions for the weeds. After the test plants have emerged after a period of 3 to 4 weeks, the damage to the plants or the negative effect on the emergence is scored visually by comparison with untreated controls. As shown by the test results, the compounds according to the invention have a good herbicidal pre-emergence activity against a broad spectrum of grass weeds and broad-leaved weeds.

[2] = test system: Sinapis alba, Stellaria media, Chrysanthemum segetum, and Lolium multiflorum; experiment: Post-emergence effect on weeds (greenhouse pot test, visual scoring); assay type: in vivo; settings: applied post-emergence (three-leaf stage) at 0.3 kg to 0.005 kg of active ingredient per hectare; scored visually after about 3 to 4 weeks vs untreated controls
Description: Seeds or rhizome pieces of monocotyledonous and dicotyledonous weeds are placed in sandy loam soil in plastic pots, covered with soil and grown in a greenhouse under good growth conditions. Three weeks after sowing, the test plants are treated in the three-leaf stage. The compounds of the formula (I) or salts thereof according to the invention which have been formulated as wettable powders or as emulsion concentrates are sprayed in various dosages onto the green parts of the plants at an application rate of 600 to 800 l of water/ha (converted). After the test plants have remained in the greenhouse for about 3 to 4 weeks under ideal growth conditions, the effect of the preparations is scored visually by comparison with untreated controls. The agents according to the invention also have a good herbicidal post-emergence activity against a broad range of economically important grass weeds and broad-leaved weeds.

melting point	Compound	herbicidal activity, pre-emergence [1]	herbicidal activity, post-emergence [2]
209 to 210 °C (dec.)	COc1cc(OC)nc(NC(=O)NS(=O)(=O)c2ccccc2N=CN(C)C)n1 [Example 1-1, N-[(4,6-dimethoxypyrimidin-2-yl)aminocarbonyl]-2-(2-dimethylamino-1-azaethenyl)benzenesulfonamide]	very good herbicidal activity	very good herbicidal activity
	CCN(C=Nc1ccccc1S(=O)(=O)NC(=O)Nc1nc(OC)cc(OC)n1)CC [Example 1-5]	very good herbicidal activity	very good herbicidal activity
	COc1cc(OC)nc(NC(=O)[N-]S(=O)(=O)c2ccccc2N=CN(C)C)n1.[Na+] [Example 1-14]	very good herbicidal activity	very good herbicidal activity
73 to 75 °C	COC(=O)c1ccc(N=CN(C)C)cc1S(=O)(=O)NC(=O)Nc1nc(OC)cc(OC)n1 [Example 2-10, methyl 2-[[[[(4,6-dimethoxypyrimidin-2-yl)amino]carbonyl]amino]sulfonyl]-4-(2-dimethylamino-1-azaethenyl)-benzoate]	very good herbicidal activity	very good herbicidal activity
140 to 141 °C (dec.)	COc1cc(OC)nc(NC(=O)NS(=O)(=O)c2cc(N=CN(C)C)ccc2C(=O)N(C)C)n1 [Example 2-15, N,N-dimethyl-2-[[[[(4,6-dimethoxypyrimidin-2-yl)-amino]carbonyl]amino]sulfonyl]-4-(2-dimethylamino-1-azaethenyl)-benzamide]	very good herbicidal activity	very good herbicidal activity
	COc1cc(OC)nc(NC(=O)NS(=O)(=O)c2cc(N=CN(C)C)ccc2S(C)(=O)=O)n1 [Example 2-21]	very good herbicidal activity	very good herbicidal activity
	CCS(=O)(=O)c1ccc(N=CN(C)C)cc1S(=O)(=O)NC(=O)Nc1nc(OC)cc(OC)n1 [Example 2-22]	very good herbicidal activity	very good herbicidal activity
	CCC(=Nc1ccc(C(=O)OC)c(S(=O)(=O)NC(=O)Nc2nc(OC)cc(OC)n2)c1)N(C)C [Example 2-24]	very good herbicidal activity	very good herbicidal activity
	COC(=O)c1ccc(N=C(C(C)C)N(C)C)cc1S(=O)(=O)NC(=O)Nc1nc(OC)cc(OC)n1 [Example 2-26]	very good herbicidal activity	very good herbicidal activity
	COC(=O)c1ccc(N=CN2CCCC2)cc1S(=O)(=O)NC(=O)Nc1nc(OC)cc(OC)n1 [Example 2-36]	very good herbicidal activity	very good herbicidal activity
	COC(=O)c1ccc(N=CN2CCCCC2)cc1S(=O)(=O)NC(=O)Nc1nc(OC)cc(OC)n1 [Example 2-37]	very good herbicidal activity	very good herbicidal activity
	COC(=O)c1ccc(N=CN(C)C)cc1S(=O)(=O)NC(=O)Nc1nc(Cl)cc(OC)n1 [Example 2-39]	very good herbicidal activity	very good herbicidal activity
	COC(=O)c1ccc(N=CN(C)C)cc1S(=O)(=O)NC(=O)Nc1nc(C)nc(OC)n1 [Example 2-41]	very good herbicidal activity	very good herbicidal activity
	COc1cc(OC)nc(NC(=O)NS(=O)(=O)c2cccc(N=CN(C)C)c2)n1 [Example 2-47]	very good herbicidal activity	very good herbicidal activity
	CCN(C=Nc1ccc(C(=O)OC)c(S(=O)(=O)NC(=O)Nc2nc(OC)cc(OC)n2)c1)CC [Example 2-48]	very good herbicidal activity	very good herbicidal activity
	CCN(C=Nc1ccc(C(=O)OC)c(S(=O)(=O)[N-]C(=O)Nc2nc(OC)cc(OC)n2)c1)CC.[Na+] [Example 2-49]	very good herbicidal activity	very good herbicidal activity
	CCN(C=Nc1ccc(S(=O)(=O)CC)c(S(=O)(=O)NC(=O)Nc2nc(OC)cc(OC)n2)c1)CC [Example 2-50]	very good herbicidal activity	very good herbicidal activity
	COc1cc(OC)nc(NC(=O)NS(=O)(=O)c2ncccc2N=CN(C)C)n1 [Example 4-2]		very good herbicidal activity
	COc1cc(OC)nc(NC(=O)NS(=O)(=O)c2ncccc2N=C(C(C)C)N(C)C)n1 [Example 4-17]	very good herbicidal activity	very good herbicidal activity
	COc1cc(OC)nc(NC(=O)NS(=O)(=O)c2ncccc2N=C(C)N(C)C)n1 [Example 4-18]	very good herbicidal activity	very good herbicidal activity
	CCC(=Nc1cccnc1S(=O)(=O)NC(=O)Nc1nc(OC)cc(OC)n1)N(C)C [Example 4-19]	very good herbicidal activity	very good herbicidal activity
	COc1cc(OC)nc(NC(=O)NS(=O)(=O)c2sccc2N=C(C)N(C)C)n1 [Example 9-1]	very good herbicidal activity	very good herbicidal activity
	COc1cc(OC)nc(NC(=O)[N-]S(=O)(=O)c2sccc2N=C(C)N(C)C)n1.[Na+] [Example 9-2]	very good herbicidal activity	very good herbicidal activity
	COc1cc(OC)nc(NC(=O)NS(=O)(=O)c2sccc2N=C(C(C)C)N(C)C)n1 [Example 9-3]	very good herbicidal activity	very good herbicidal activity
	COc1cc(OC)nc(NC(=O)[N-]S(=O)(=O)c2sccc2N=C(C(C)C)N(C)C)n1.[Na+] [Example 9-4]	very good herbicidal activity	very good herbicidal activity
	COc1cc(OC)nc(NC(=O)NS(=O)(=O)c2sccc2N=CN(C)C)n1 [Example 9-5]	very good herbicidal activity	very good herbicidal activity
	COc1cc(OC)nc(NC(=O)[N-]S(=O)(=O)c2sccc2N=CN(C)C)n1.[Na+] [Example 9-6]	very good herbicidal activity	very good herbicidal activity
	COc1cc(OC)nc(NC(=O)NS(=O)(=O)c2c(N=CN(C)C)c(C)nn2C)n1 [Example 10-1]	very good herbicidal activity	very good herbicidal activity
	COc1cc(OC)nc(NC(=O)[N-]S(=O)(=O)c2c(N=CN(C)C)c(C)nn2C)n1.[Na+] [Example 10-2]	very good herbicidal activity	very good herbicidal activity
